Test results reported in USRE48097E1, “Cephem compounds, their production and use” (priority 2015, dated 2020).
Where two headings read alike, the source gives them in different places.

Assays:
K. baumanii 4095 = assay: MIC against K. baumanii 4095; assay type: cell-based; conditions: Table 2, K. baumanii 4095, OXA-48
Excerpt: (§1) Without limitation, the present cephem compounds alone, or in combination with one or more β-lactamase inhibitors, may provide improved antibacterial efficacy, particularly in antibiotic-resistant bacterial strains. It is believed that the present compounds may be structurally different from known compounds and, as a result, may be more basic in nature. It is an advantage that the present compounds may extend the spectrum of effective bacterial compounds, particularly against previously-resistant bacteria (e.g. ESKAPE organisms), and/or gram negative bacteria, without significant side effects. In a preferred embodiment, the present cephem compound may comprise reference compound ceftazidime, which may be used alone, or in combination with one or more β-lactamase inhibitors, such as NXL-104. As shown, the foregoing composition was tested for minimum inhibitory concentration (MIC, μg/mL) against bacteria listed in Tables 2-3.

E. coli 4101 = assay: MIC against E. coli 4101; assay type: cell-based; conditions: Table 2, E. coli 4101, CTX-M-14, TEM-1
Excerpt: as §1

K. pneumoniae 4104 = assay: MIC against K. pneumoniae 4104; assay type: cell-based; conditions: K. pneumoniae 4104, KPC-3, TEM-1
Experimental: (§2) As shown, the foregoing composition was tested for minimum inhibitory concentration (MIC, μg/mL) against bacteria listed in Tables 2-3.

P. aeruginosa 2573 = assay: MIC against P. aeruginosa 2573; assay type: cell-based; conditions: Table 2, P. aeruginosa 2573, OXA-10 (Class D)
Excerpt: as §1

K. pneumoniae 4088 = assay: MIC against K. pneumoniae 4088; assay type: cell-based; conditions: Table 3, K. pneumoniae 4088, KPC-3
Experimental: as §2

K. baumanii 4091 = assay: MIC against K. baumanii 4091; assay type: cell-based; conditions: Table 2, K. baumanii 4091, OXA-23
Excerpt: as §1

S. pneumoniae 2389 = assay: MIC against S. pneumoniae 2389; assay type: cell-based; conditions: Table 2, S. pneumoniae 2389, Pen R
Excerpt: as §1

E. coli 4103 = assay: MIC against E. coli 4103; assay type: cell-based; conditions: Table 3, E. coli 4103, KPC-2, TEM-1, CMY-type
Experimental: as §2

K. baumanii 4094 = assay: MIC against K. baumanii 4094; assay type: cell-based; conditions: Table 2, K. baumanii 4094, OXA-51
Excerpt: as §1

E. cloacae 2689 = assay: MIC against E. cloacae 2689; assay type: cell-based; conditions: Table 3, E. cloacae 2689, KPC-2
Experimental: as §2

K. pneumoniae 2689 = assay: MIC against K. pneumoniae 2689; assay type: cell-based; conditions: K. pneumoniae 2689, KPC-2
Experimental: as §2

K. pneumoniae 4107 = assay: MIC against K. pneumoniae 4107; assay type: cell-based; conditions: K. pneumoniae 4107, KPC-2, TEM-1, SHV-11
Experimental: as §2

E. cloacae596 = assay: MIC against E. cloacae596; assay type: cell-based, E. cloacae; conditions: Table 2, E. cloacae596, Caz R, IMP S
Excerpt: as §1

E. coli 2666 = assay: MIC against E. coli 2666; assay type: cell-based; conditions: Table 3, E. coli 2666, KPC-2
Experimental: as §2

C. freundii 2487 = assay: MIC against C. freundii 2487; assay type: cell-based; conditions: Table 2, C. freundii 2487, Caz R, IMP S
Excerpt: as §1

E. cloacae 2706 = assay: MIC against E. cloacae 2706; assay type: cell-based; conditions: Table 3, E. cloacae 2706, VIM-1, KPC-3
Experimental: as §2

E. cloacae 552 = assay: MIC against E. cloacae 552; assay type: cell-based; conditions: Table 2, E. cloacae 552, Caz S, IMP S
Excerpt: as §1

P. aeruginosa 2686 = assay: MIC against P. aeruginosa 2686; assay type: cell-based; conditions: Table 3, P. aeruginosa 2686, KPC-2
Experimental: as §2

S. aureus3137 = assay: MIC against S. aureus3137; assay type: cell-based, S. aureus; conditions: Table 2, S. aureus3137, MSSA
Excerpt: as §1

K. pneumoniae 2697 = assay: MIC against K. pneumoniae 2697; assay type: cell-based; conditions: Table 2, K. pneumoniae 2697, IMP-4
Excerpt: as §1

C. freundii 15 = assay: MIC against C. freundii 15; assay type: cell-based; conditions: Table 2, C. freundii 15, Caz R, IMP S
Excerpt: as §1

S. pneumoniae 2403 = assay: MIC against S. pneumoniae 2403; assay type: cell-based; conditions: Table 2, S. pneumoniae 2403, Pen S
Excerpt: as §1

E. coli 2668 = assay: MIC against E. coli 2668; assay type: cell-based; conditions: Table 2, E. coli 2668, OXA-48
Excerpt: as §1

E. coli 2671 = assay: MIC against E. coli 2671; assay type: cell-based; conditions: Table 2, E. coli 2671, VIM-19
Excerpt: as §1

[1] = Escherichia coli, alone, read-out: MIC
[2] = Klebsiella pneumoniae, 4104, Table 2, alone, read-out: MIC
[3] = Klebsiella pneumoniae, 4104, Table 3, alone, read-out: MIC
[4] = Pseudomonas aeruginosa, alone, read-out: MIC
[5] = Klebsiella pneumoniae, alone, read-out: MIC
[6] = Streptococcus pneumoniae, alone, read-out: MIC
[7] = Enterobacter cloacae, alone, read-out: MIC
[8] = Klebsiella pneumoniae, 2689, Table 2, alone, read-out: MIC
[9] = Klebsiella pneumoniae, 2689, Table 3, alone, read-out: MIC
[10] = Klebsiella pneumoniae, 4107, Table 2, alone, read-out: MIC
[11] = Klebsiella pneumoniae, 4107, Table 3, alone, read-out: MIC
[12] = Citrobacter freundii, alone, read-out: MIC
[13] = Staphylococcus aureus, alone, read-out: MIC
[14] = Table 2, in combination with NXL-104
[15] = Table 3, in combination with NXL-104

Measured: MIC

CC(C)(O/N=C(\C(=O)N[C@@H]1C(=O)N2C(C(=O)[O-])=C(C[n+]3ccc4c(ccn4Cc4ccc(C(=N)N)cc4)c3)CS[C@H]12)c1csc(N)n1)C(=O)O [Ex-1, (6R,7R)-7-{[(2Z)-2-(2-Amino-1,3-thiazol-4-yl)-2-{[(2-carboxypropan-2-yl)oxy]imino}acetyl]-amino}-3-{[1-(4-carbamimidoylbenzyl)-1H-pyrrolo[3,2-c]pyridin-5-ium-5-yl]methyl}-8-oxo-5-thia-1-azabicyclo[4.2.0]oct-2-ene-2-carboxylate]
1 µg/mL: E. coli 2668; [1]
0.5 µg/mL: K. baumanii 4095; alone, read-out: MIC | E. coli 4101; [1]
4 µg/mL: P. aeruginosa 2573; [4] | S. pneumoniae 2389; [6] | E. cloacae596; [7] | K. pneumoniae 2697; [5]
16 µg/mL: K. pneumoniae 4104; [2] | K. baumanii 4091; alone, read-out: MIC | K. baumanii 4094; alone, read-out: MIC | K. pneumoniae 2689; [9] | K. pneumoniae 4107; [10] | C. freundii 15; [12] | E. coli 2671; [1]
8 µg/mL: K. pneumoniae 2689; [8] | S. aureus3137; [13]
0.12 µg/mL: E. cloacae 552; [7]
32 µg/mL: K. pneumoniae 4104; [3] | E. cloacae 2689; [7] | K. pneumoniae 4107; [11] | E. coli 2666; [1] | C. freundii 2487; [12]
≤ 0.06 µg/mL: S. pneumoniae 2403; [6]
> 32 µg/mL: K. pneumoniae 4088; [5] | E. coli 4103; [1] | E. cloacae 2706; [7] | P. aeruginosa 2686; [4]

CC(C)(O/N=C(\C(=O)N[C@@H]1C(=O)N2C(C(=O)[O-])=C(C[n+]3ccc4n3CCN4Cc3ccc(C(=N)N)cc3)CS[C@H]12)c1csc(N)n1)C(=O)O [Example 2, (6R,7R)-7-{[(2Z)-2-(2-Amino-1,3-thiazol-4-yl)-2-{[(2-carboxypropan-2-yl)oxy]imino}acetyl]amino}-3-{[1-(4-carbamimidoylbenzyl)-2,3-dihydro-1H-imidazo[1,2-b]pyrazol-5-ium-5-yl]methyl}-8-oxo-5-thia-1-azabicyclo[4.2.0]oct-2-ene-2-carboxylate]
4.00 µg/mL: P. aeruginosa 2573; in combination with NXL-104 | K. pneumoniae 4107; [14] | E. coli 2671; in combination with NXL-104
> 32 µg/mL: K. pneumoniae 4088; [5] | E. coli 4103; [1] | K. pneumoniae 4107; [11] | E. cloacae 2706; [7] | P. aeruginosa 2686; [4]
2.00 µg/mL: K. pneumoniae 4104; [14] | K. baumanii 4091; in combination with NXL-104 | K. pneumoniae 2689; [14]
8.00 µg/mL: S. pneumoniae 2389; in combination with NXL-104 | K. baumanii 4094; in combination with NXL-104
32 µg/mL: K. pneumoniae 4104; [3] | K. baumanii 4094; alone, read-out: MIC | K. pneumoniae 2689; [9] | E. coli 2666; [1] | E. cloacae 2706; in combination with NXL-104 | S. aureus3137; [13]
≤ 0.06 µg/mL: S. pneumoniae 2403; [6]
0.5 µg/mL: E. coli 4101; [1] | E. cloacae 2689; in combination with NXL-104 | E. cloacae596; [7] | E. coli 2668; [1]
0.25 µg/mL: K. baumanii 4095; alone, read-out: MIC | K. baumanii 4095; in combination with NXL-104 | E. cloacae596; in combination with NXL-104 | E. coli 2668; in combination with NXL-104
≤0.06 µg/mL: S. pneumoniae 2403; in combination with NXL-104
1.00 µg/mL: C. freundii 2487; in combination with NXL-104 | K. pneumoniae 2697; in combination with NXL-104
0.12 µg/mL: E. coli 4101; in combination with NXL-104 | E. cloacae 552; [7] | E. cloacae 552; in combination with NXL-104
16 µg/mL: K. pneumoniae 4107; [10] | P. aeruginosa 2686; in combination with NXL-104
2 µg/mL: K. pneumoniae 4104; [15] | P. aeruginosa 2573; [4] | K. pneumoniae 2689; [15] | K. pneumoniae 4107; [15] | E. coli 2666; in combination with NXL-104
8 µg/mL: K. pneumoniae 4104; [2] | K. baumanii 4091; alone, read-out: MIC | S. pneumoniae 2389; [6] | E. coli 4103; in combination with NXL-104 | E. cloacae 2689; [7] | K. pneumoniae 2689; [8] | C. freundii 2487; [12]
4 µg/mL: K. pneumoniae 4088; in combination with NXL-104 | K. pneumoniae 2697; [5] | C. freundii 15; [12] | E. coli 2671; [1]
0.50 µg/mL: C. freundii 15; in combination with NXL-104
32.00 µg/mL: S. aureus3137; in combination with NXL-104
